Test results: PubChem BioAssay (NCI)
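96-well plates; 48 h exposure; 5 concentrations. Endpoints by linear interpolation between flanking doses. Not reached: highest tested concentration assigned. At the TGI there is no net growth.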

Legend:
Assay in all cases: NCI tumour cell line growth inhibition, 48 h
[1] = tested on: HCT-116 colon
[2] = tested on: SNB-19 CNS
[3] = tested on: NCI-H460 lung
[4] = tested on: M14 melanoma
[5] = tested on: SK-OV-3 ovarian
[6] = tested on: M19-MEL melanoma
[7] = tested on: OVCAR-8 ovarian
[8] = tested on: U251 CNS
[9] = tested on: RXF 393 renal
[10] = tested on: KM12 colon
[11] = tested on: TK-10 renal
[12] = tested on: KM20L2 colon
[13] = tested on: DMS 273 small cell lung
[14] = tested on: IGROV1 ovarian
[15] = tested on: SN12C renal
[16] = tested on: CAKI-1 renal
[17] = tested on: RPMI-8226 leukemia
[18] = tested on: NCI-H23 lung
[19] = tested on: DMS 114 small cell lung
[20] = tested on: SF-295 CNS
[21] = tested on: COLO 205 colon
[22] = tested on: SNB-78 CNS
[23] = tested on: SW-620 colon
[24] = tested on: EKVX NSCLC
[25] = tested on: MALME-3M melanoma
[26] = tested on: HOP-92 NSCLC
[27] = tested on: DLD-1 colon
[28] = tested on: XF 498 CNS
[29] = tested on: UACC-62 melanoma
[30] = tested on: A549 NSCLC
[31] = tested on: SF-268 CNS
[32] = tested on: OVCAR-5 ovarian
[33] = tested on: HOP-18 NSCLC
[34] = tested on: LXFL 529 NSCLC
[35] = tested on: NCI-H226 lung
[36] = tested on: HT29 colon
[37] = tested on: SK-MEL-5 melanoma
[38] = tested on: NCI-H522 lung
[39] = tested on: HL-60(TB) leukemia
[40] = tested on: LOX IMVI melanoma
[41] = tested on: K-562 leukemia
[42] = tested on: 786-0 renal
[43] = tested on: ACHN renal
[44] = tested on: CCRF-CEM leukemia
[45] = tested on: UACC-257 melanoma
[46] = tested on: SR leukemia
[47] = tested on: SK-MEL-2 melanoma
[48] = tested on: MOLT-4 leukemia
[49] = tested on: HOP-62 NSCLC
[50] = tested on: A498 renal
[51] = tested on: SF-539 CNS
[52] = tested on: SNB-75 CNS
[53] = tested on: RXF-631 renal
[54] = tested on: HCT-15 colon
[55] = tested on: OVCAR-4 ovarian
[56] = tested on: SK-MEL-28 melanoma
[57] = tested on: UO-31 renal
[58] = tested on: HCC-2998 colon
[59] = tested on: OVCAR-3 ovarian

Measured: TGI

NNC(=S)N/N=C(\c1nc2ccc(Cl)cc2[nH]c1=O)C(O)c1ccc(Cl)cc1Cl (centres undefined)
not listed: [58] | [59]
> 100 µM: all other assays above

C[N+](C)(C)CC(=O)NC(=O)N/N=C\C(CC#N)CN(Cc1ccccc1)Cc1ccccc1 (centres undefined)
not listed: [17] | [26]
> 100 µM: all other assays above
